This note sets out measurements from ChEMBL document CHEMBL3045337, “A Comparative Study: Evaluation of Antioxidant Activity of Melatonin and Some Indole Derivatives” (Med Chem Res, 2005).

Assay [1] in a line: Antioxidant activity assessed as superoxide radical scavenging activity at 10 '-3 M measured for 3 min by spectrophotometry relative to control. The format is functional.
A short description of assay [2]: Antioxidant activity assessed as superoxide radical scavenging activity at 10 '-4 M measured for 3 min by spectrophotometry relative to control. In kind it is functional.
Assay [3] concerns Liver. As to the kind of experiment: Antioxidant activity in Rattus norvegicus (rat) liver homogenate assessed as inhibition of lipid peroxidation measuring TBARS production at 10 '-3 M after 1 hr by spectrophotometry relative to control. The format is functional, tissue-based.
Assay [4] has as its system Liver. As to the kind of experiment: Antioxidant activity in Rattus norvegicus (rat) liver homogenate assessed as inhibition of lipid peroxidation measuring TBARS production at 10 '-4 M after 1 hr by spectrophotometry relative to control. The format is functional, tissue-based.

In general, inhibition refers to the change of the read-out against control, counted positive when it falls. Regarding `COc1ccc2[nH]cc(CCNC(C)=O)c2c1`, the Activity in assay [1] came out at 84%. The Superoxide level, % of control in assay [2] was found to be 90%. Further, in assay [3], the inhibition was 28%. Also, the TBARS production (% of control) in assay [4] turned out to be 93%.

Turning to `Cc1c(C)c2c(c(C)c1O)CC[C@@](C)(CCC[C@H](C)CCC[C@H](C)CCCC(C)C)O2`, in assay [1], the Activity was found to be 14%. Further, the Superoxide level, % of control in assay [2] amounted to 83%. Besides, the inhibition in assay [3] was determined as 27%. Moreover, the TBARS production (% of control) in assay [4] is 46%.

Take `CCCCCNC(=O)CCc1c[nH]c2ccccc12`: the Activity in assay [1] was determined as 87%. For the same compound, the Superoxide level, % of control in assay [2] stood at 103%. Besides, the inhibition in assay [3] was 25%. The TBARS production (% of control) in assay [4] came to 94%.

With `CN(C)CCNC(=O)CCc1c[nH]c2ccccc12`, the Activity in assay [1] was 83%. In addition, the Superoxide level, % of control in assay [2] was found to be 94%. The inhibition in assay [3] worked out at 28%. Also, in assay [4], the TBARS production (% of control) stood at 101%.

On to `CN(C)CCCNC(=O)CCc1c[nH]c2ccccc12`, for which the Activity in assay [1] came out at 98%. Also, the Superoxide level, % of control in assay [2] is 98%. The inhibition in assay [3] was found to be 27%. The TBARS production (% of control) in assay [4] came to 102%.

With `CCN(CC)CCNC(=O)CCc1c[nH]c2ccccc12`, in assay [1], the Activity stood at 91%. Also, the Superoxide level, % of control in assay [2] was 102%. Also, the inhibition in assay [3] stood at 26%. Moreover, the TBARS production (% of control) in assay [4] was determined as 51%.

As to `CCCCNC(=O)CCc1c[nH]c2ccccc12`, the Activity in assay [1] was 85%. The Superoxide level, % of control in assay [2] is 104%. The inhibition in assay [3] was determined as 28%. Also, the TBARS production (% of control) in assay [4] was found to be 100%.

As to `COC(=O)CCc1c[nH]c2ccccc12`, the Activity in assay [1] came to 70%. In addition, in assay [2], the Superoxide level, % of control stood at 54%. Further, the inhibition in assay [3] stood at 56%. The TBARS production (% of control) in assay [4] was found to be 114%.

Take `CCN(CC)CCCNC(=O)CCc1c[nH]c2ccccc12`: the Activity in assay [1] was 90%. Further, the Superoxide level, % of control in assay [2] was 108%. The inhibition in assay [3] came to 31%. Also, the TBARS production (% of control) in assay [4] was determined as 96%.

As for `CCCNC(=O)CCc1c[nH]c2ccccc12`, the Activity in assay [1] came out at 94%. Also, the Superoxide level, % of control in assay [2] was found to be 100%. For the same compound, the inhibition in assay [3] is 28%. For the same compound, in assay [4], the TBARS production (% of control) came to 102%.
